Laboratory results as given in ChEMBL document CHEMBL5131543, “Studying Lipophilicity Trends of Phosphorus Compounds by 31P-NMR Spectroscopy: A Powerful Tool for the Design of P-Containing Drugs” (J Med Chem, 2022).

Assays:
Format in all cases: physicochemical
[1] = […]-water partition coefficient, logP of compound by shake flask method based 31P-NMR analysis; conditions: octanol/water
[2] = Octanol-water partition coefficient, logP of compound at pH 1.3 by shake flask method based 31P-NMR analysis
[3] = Lipophilicity, logD of compound at pH 1.3 by shake flask method based 31P-NMR analysis; conditions: buffer
[4] = Basicity of hydrogen bond, pKHB of compound by IR spectroscopy
[5] = Octanol-water partition coefficient, logP of compound by shake flask method based 31P-NMR analysis
[6] = Lipophilicity, logD of compound at pH 3 by shake flask method based 31P-NMR analysis; conditions: buffer
[7] = Lipophilicity, logD of compound at pH 7.4 by shake flask method based 31P-NMR analysis; conditions: buffer

SMILES: CCOP(=O)(OCC)Oc1ccc(OC)cc1
- logP [1]: 2.14

SMILES: O=P(O)(O)C(O)(c1ccccc1)P(=O)(O)O
- logP [2]: -1.87

SMILES: CCCCCCCC(O)(P(=O)(O)O)P(=O)(O)O
- logD [3]: 0.6

SMILES: CCOP(=S)(OCC)Oc1ccccc1
- logP [1]: 3.34

SMILES: CCOP(=S)(OCC)Oc1ccc(OC)cc1
- logP [1]: 3.37

SMILES: O=P(O)(O)C(O)(c1ccc(F)cc1)P(=O)(O)O
- logD [3]: -1.57

SMILES: CCOP(=O)(OCC)SCC
- logP [1]: 1.42
- pKHB [4]: 2.377

SMILES: CCOP(=O)(OCC)c1ccccc1
- logP [5]: 1.1

SMILES: O=P(O)(O)C(O)(c1cc(F)c(F)c(F)c1)P(=O)(O)O
- logD [3]: -0.69

SMILES: CCOP(=S)(OCC)c1ccccc1
- logP [5]: 3.66

SMILES: CCOP(=S)(OCC)SCC
- logP [1]: 3.38

SMILES: CP(C)(C)=O
- logP [1]: -1.6
- pKHB [4]: 3.444

SMILES: CP(C)(C)=S
- logP [1]: -0.23
- pKHB [4]: 1.533

SMILES: CCNP(=O)(OCC)OCC
- logP [1]: 0.54

SMILES: O=P(O)(O)C(O)(c1ccccc1F)P(=O)(O)O
- logD [3]: -2.16
- logD [6]: -3.25

SMILES: O=P(CCCO)(CCCO)CCCO
- logP [1]: -2.49

SMILES: OCCCP(=[Se])(CCCO)CCCO
- logP [1]: -0.9

SMILES: CP(C)(C)=[Se]
- logP [1]: -0.02
- pKHB [4]: 1.519

SMILES: OCCCP(=S)(CCCO)CCCO
- logP [1]: -1.2

SMILES: CCCCCCCCCC(O)(P(=O)(O)O)P(=O)(O)O
- logD [3]: 1.72

SMILES: CCCCCCC(O)(P(=O)(O)O)P(=O)(O)O
- logD [3]: -0.08

SMILES: C[C@@H]1C[C@H]2[C@@H]3CCC4=CC(=O)C=C[C@]4(C)[C@@]3(F)[C@@H](O)C[C@]2(C)[C@@]1(O)C(=O)COP(=O)(O)O [DEXAMETHASONE SODIUM PHOSPHATE]
- logD [3]: 1.24

SMILES: CCOP(=O)(OCC)Oc1ccc([N+](=O)[O-])cc1 [PARAOXON]
- logP [1]: 2.11

SMILES: CCOP(=S)(OCC)Oc1ccc([N+](=O)[O-])cc1 [PARATHION]
- logP [1]: 3.08

SMILES: CCOP(=O)(OCC)Oc1ccccc1 [PHOSPHORIC ACID DIETHYL ESTER PHENYL ESTER]
- logP [1]: 2.07

SMILES: CC(C)OC(=O)OCOP(=O)(CO[C@H](C)Cn1cnc2c(N)ncnc21)OCOC(=O)OC(C)C [TENOFOVIR DISOPROXIL]
- logD [3]: 1.26
- logD [7]: 1.26

SMILES: CCOP(=O)(OCC)OCC [TRIETHYL PHOSPHATE]
- pKHB [4]: 2.574

SMILES: COP(=O)(OC)OC [TRIMETHYL PHOSPHATE]
- logP [1]: -0.4
